Assay results published in patent publication US20020081731A1, “MANIPULATION OF PLANT CELL AND TISSUE CULTURES” (priority 1995, published 2002).

System: E. californica suspension subcultures
Assay: Seed pretreatment, HPLC analysis of suspension subculture extracts
Type: cell-based, Eschscholtzia californica
Details: ungerminated seeds pretreated or not pretreated; T1 and T3 conditions; organic solvent extract of cell biomass
Excerpt: Ungerminated E. californica seeds were either pretreated by exposure to 5-azacytidine, or not pretreated. After uniform germination, callus induction and subculture, suspension initiation, and suspension subculture, the resulting suspension subcultures were subjected to T1 (control) and T3 conditions.

## Nc1ncn([C@@H]2O[C@H](CO)[C@@H](O)[C@H]2O)c(=O)n1 [5-azacytidine]
  size, number, and location of peaks in the chromatograms: significantly altered the size, number, and location of peaks
